Measurements published in article PMC7272715, “Functional Characterization of Pseudoidium neolycopersici Photolyase Reveals Mechanisms Behind the Efficacy of Nighttime UV on Powdery Mildew Suppression” (Frontiers in Microbiology, 2020).

Target: T1, PnPHR1 (P. neolycopersici photolyase, PN0912) (Erysiphe neolycopersici, UniProt A0A7D3USA5)
T1 construct: GenBank MT277362-MT277364 printed for the three genes together (MT277363 only by order of listing)
T1 sequence (A0A7D3USA5 1-634): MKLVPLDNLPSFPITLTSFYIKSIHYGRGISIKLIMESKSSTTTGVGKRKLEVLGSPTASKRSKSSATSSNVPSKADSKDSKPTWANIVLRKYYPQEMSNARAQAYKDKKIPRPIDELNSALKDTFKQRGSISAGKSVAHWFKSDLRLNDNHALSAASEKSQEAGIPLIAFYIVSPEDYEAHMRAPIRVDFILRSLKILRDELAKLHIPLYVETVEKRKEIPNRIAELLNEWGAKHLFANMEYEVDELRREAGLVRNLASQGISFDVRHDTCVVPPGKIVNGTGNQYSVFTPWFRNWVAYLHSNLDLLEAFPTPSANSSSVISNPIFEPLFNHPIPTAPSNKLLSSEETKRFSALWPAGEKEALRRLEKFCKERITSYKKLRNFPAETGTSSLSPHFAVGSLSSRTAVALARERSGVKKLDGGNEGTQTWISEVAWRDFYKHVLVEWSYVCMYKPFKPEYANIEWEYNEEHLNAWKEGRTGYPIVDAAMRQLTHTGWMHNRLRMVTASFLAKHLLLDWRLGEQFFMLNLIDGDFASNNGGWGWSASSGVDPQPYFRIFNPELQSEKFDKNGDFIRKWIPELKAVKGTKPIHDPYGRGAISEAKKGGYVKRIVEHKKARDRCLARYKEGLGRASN
Experiment: absorption and fluorescence spectra of purified protein and of chromophore released by heat
Assay type: binding
Settings: pH 8.0 storage buffer, 22 °C; intrinsic chromophore co-purified from E. coli; identity inferred from emission (excitation 370 nm); no clear absorption maximum

Structure (SMILES): Cc1cc2c(cc1C)N(C[C@H](O)[C@H](O)[C@H](O)COP(=O)(O)OP(=O)(O)OC[C@H]1O[C@@H](n3cnc4c(N)ncnc43)[C@H](O)[C@@H]1O)c1[nH]c(=O)[nH]c(=O)c1N2 [FADH^–]
- absorption and fluorescence spectra of purified protein and of chromophore relea: could only reveal the presence of a reduced form of FAD, i.e., FADH^–
